In ChEMBL document CHEMBL1143744, “Modification of eukaryotic initiation factor 5A from Plasmodium vivax by a truncated deoxyhypusine synthase from Plasmodium falciparum: An enzyme with dual enzymatic properties” (Bioorg Med Chem, 2007) one finds Ki data, which are given here for 2 molecules.

As usually defined, the pKi is −log10 of the Ki, conventionally taken in molar units.

pKi: −log10 of the molar value.

In the experiment the target is T1, Deoxyhypusine synthase (Plasmodium falciparum, UniProt Q9GSW0).
T1 sequence (Q9GSW0 whole entry): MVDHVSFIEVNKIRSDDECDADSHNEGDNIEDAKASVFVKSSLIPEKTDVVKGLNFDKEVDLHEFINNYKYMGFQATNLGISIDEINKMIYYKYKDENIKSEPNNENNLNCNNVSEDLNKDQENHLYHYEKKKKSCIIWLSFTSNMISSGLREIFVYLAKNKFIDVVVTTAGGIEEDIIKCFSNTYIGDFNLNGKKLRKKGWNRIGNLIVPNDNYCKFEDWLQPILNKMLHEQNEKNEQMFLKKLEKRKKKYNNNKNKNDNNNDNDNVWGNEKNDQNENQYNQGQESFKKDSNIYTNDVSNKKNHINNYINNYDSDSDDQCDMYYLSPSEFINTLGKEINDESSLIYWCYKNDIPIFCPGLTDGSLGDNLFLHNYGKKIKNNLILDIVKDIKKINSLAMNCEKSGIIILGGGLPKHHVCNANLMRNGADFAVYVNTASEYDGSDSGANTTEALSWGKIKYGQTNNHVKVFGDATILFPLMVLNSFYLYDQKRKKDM
Kind of experiment: Inhibition of recombinant deoxyhypusine synthase in Plasmodium falciparum NF54.

As to `N=C(N)NCCCCCCCN`, the pKi is 7.00. Under `NCCCCCCCN` stands 4.30.
